Like-named read-outs stand apart in the source and are kept apart here.
Tests used:
Format in all cases: biochemical
p110α/p85α = p110α/p85α (Homo sapiens (Human), UniProt P42336); test: PI 3-Kinase (human) HTRF assay, p110α/p85α
Experimental: An exemplary system is PI 3-Kinase (human) HTRF™ Assay from Upstate. […] Briefly, the assay is a time resolved FRET assay that indirectly measures PIP3 product formed by the activity of a PI3-K. The kinase reaction is performed in a microtitre plate (e.g., a 384 well microtitre plate). The total reaction volume is approximately 20 ul per well. In the first step, each well receives 2 ul of test compound in 20% dimethylsulphoxide resulting in a 2% DMSO final concentration. Next, approximately 14.5 ul of a kinase/PIP2 mixture (diluted in 1× reaction buffer) is added per well for a final concentration of 0.25-0.3 ug/ml kinase and 10 μM PIP2. The plate is sealed and incubated for 15 minutes at room temperature. To start the reaction, 3.5 ul of ATP (diluted in 1× reaction buffer) is added per well for a final concentration of 10 μM ATP. The plate is sealed and incubated for 1 hour at room temperature. The reaction is stopped by adding 5 ul of Stop Solution per well and then 5 ul of Detection Mix is added per well. The plate is sealed, incubated for 1 hour at room temperature, and then read on an appropriate plate reader. Data is analyzed and IC50s are generated using GraphPad Prism 5. […] For PI3K α, β, δ, and γ, the nM concentration of inhibitor to reach IC50 is provided.

p110β/p85α = p110β/p85α (Homo sapiens (Human), UniProt P42338); test: PI 3-Kinase (human) HTRF assay, p110β/p85α
p110γ = p110γ (Homo sapiens (Human), UniProt P48736); test: PI 3-Kinase (human) HTRF assay, p110γ
[1] = in vitro, read-out: PI3K α IC50
[2] = in vitro, read-out: PI3K β IC50
[3] = in vitro, read-out: PI3K γ IC50

Sequence of p110γ (P48736 whole entry): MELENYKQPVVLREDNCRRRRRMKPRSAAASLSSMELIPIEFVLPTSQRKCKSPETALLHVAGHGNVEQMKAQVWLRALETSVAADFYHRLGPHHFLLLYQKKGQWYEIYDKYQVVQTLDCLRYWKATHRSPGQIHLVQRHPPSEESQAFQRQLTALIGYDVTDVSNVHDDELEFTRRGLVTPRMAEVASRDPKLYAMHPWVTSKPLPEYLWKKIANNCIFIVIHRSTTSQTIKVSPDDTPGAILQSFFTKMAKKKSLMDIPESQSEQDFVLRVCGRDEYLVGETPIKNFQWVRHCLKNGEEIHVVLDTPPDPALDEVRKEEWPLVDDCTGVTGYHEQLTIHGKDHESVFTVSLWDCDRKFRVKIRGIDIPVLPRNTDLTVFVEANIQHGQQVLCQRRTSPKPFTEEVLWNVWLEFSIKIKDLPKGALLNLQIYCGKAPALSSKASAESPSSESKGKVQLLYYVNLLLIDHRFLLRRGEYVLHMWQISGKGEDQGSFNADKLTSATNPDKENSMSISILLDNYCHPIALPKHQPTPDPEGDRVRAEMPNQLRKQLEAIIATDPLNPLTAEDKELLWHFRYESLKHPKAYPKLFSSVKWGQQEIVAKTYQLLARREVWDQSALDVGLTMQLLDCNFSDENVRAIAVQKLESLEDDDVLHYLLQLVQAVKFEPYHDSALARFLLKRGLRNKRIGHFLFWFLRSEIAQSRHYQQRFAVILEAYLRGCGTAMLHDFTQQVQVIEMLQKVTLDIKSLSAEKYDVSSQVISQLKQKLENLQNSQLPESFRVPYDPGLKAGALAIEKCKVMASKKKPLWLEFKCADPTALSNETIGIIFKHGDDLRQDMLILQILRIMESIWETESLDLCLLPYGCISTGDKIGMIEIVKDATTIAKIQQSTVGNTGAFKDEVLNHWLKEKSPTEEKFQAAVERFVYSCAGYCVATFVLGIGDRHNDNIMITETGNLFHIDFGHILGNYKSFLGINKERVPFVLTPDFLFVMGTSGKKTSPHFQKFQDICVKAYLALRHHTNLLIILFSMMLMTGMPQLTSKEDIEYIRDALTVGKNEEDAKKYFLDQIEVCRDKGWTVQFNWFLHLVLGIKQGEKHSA
Sequence of p110β/p85α (P42338 whole entry): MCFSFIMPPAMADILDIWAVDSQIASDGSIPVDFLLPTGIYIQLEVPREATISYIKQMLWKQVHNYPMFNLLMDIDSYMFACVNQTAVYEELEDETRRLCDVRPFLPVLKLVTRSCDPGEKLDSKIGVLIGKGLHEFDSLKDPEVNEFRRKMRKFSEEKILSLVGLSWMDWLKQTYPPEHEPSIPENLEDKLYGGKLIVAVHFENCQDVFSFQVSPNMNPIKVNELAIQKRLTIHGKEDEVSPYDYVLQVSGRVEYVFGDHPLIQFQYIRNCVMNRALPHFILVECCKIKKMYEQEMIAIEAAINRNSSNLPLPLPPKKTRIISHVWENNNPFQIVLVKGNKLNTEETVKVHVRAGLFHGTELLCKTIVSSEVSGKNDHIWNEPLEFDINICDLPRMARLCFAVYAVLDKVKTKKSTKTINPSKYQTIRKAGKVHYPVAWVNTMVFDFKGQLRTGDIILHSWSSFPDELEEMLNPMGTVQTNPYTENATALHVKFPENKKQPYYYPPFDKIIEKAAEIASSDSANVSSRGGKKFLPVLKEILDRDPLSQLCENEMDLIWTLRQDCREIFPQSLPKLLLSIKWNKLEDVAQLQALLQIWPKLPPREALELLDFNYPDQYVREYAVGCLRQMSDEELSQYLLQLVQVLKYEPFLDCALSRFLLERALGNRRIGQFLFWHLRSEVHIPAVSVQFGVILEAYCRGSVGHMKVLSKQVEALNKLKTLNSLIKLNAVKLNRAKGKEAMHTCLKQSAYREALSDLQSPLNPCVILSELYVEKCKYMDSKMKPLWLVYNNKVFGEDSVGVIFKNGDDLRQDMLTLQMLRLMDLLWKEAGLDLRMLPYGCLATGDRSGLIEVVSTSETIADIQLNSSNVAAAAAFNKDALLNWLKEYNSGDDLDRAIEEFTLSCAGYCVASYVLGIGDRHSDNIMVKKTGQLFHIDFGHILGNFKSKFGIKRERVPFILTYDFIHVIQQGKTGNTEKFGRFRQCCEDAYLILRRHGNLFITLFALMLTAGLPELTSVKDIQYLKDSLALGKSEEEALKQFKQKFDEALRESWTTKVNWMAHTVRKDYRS
Sequence of p110β/p85α (P27986 whole entry partner): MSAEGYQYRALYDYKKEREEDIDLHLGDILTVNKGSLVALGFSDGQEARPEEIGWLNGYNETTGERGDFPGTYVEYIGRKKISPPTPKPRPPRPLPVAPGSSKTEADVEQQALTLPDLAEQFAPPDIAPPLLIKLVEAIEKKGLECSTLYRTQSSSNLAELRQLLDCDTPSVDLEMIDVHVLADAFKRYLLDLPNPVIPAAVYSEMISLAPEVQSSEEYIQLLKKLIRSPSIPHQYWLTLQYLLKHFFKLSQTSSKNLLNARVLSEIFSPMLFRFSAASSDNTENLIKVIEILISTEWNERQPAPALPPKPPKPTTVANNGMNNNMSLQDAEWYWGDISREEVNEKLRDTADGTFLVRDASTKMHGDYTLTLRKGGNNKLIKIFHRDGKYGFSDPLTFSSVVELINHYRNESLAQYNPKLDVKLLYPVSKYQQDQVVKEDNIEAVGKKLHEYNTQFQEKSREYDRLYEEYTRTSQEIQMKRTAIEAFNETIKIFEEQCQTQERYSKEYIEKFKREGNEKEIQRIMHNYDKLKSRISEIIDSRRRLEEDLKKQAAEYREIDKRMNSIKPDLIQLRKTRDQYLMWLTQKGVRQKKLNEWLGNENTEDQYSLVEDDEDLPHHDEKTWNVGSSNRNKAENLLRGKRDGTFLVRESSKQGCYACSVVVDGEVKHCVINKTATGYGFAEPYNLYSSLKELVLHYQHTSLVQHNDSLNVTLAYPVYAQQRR
Sequence of p110α/p85α (P42336 whole entry): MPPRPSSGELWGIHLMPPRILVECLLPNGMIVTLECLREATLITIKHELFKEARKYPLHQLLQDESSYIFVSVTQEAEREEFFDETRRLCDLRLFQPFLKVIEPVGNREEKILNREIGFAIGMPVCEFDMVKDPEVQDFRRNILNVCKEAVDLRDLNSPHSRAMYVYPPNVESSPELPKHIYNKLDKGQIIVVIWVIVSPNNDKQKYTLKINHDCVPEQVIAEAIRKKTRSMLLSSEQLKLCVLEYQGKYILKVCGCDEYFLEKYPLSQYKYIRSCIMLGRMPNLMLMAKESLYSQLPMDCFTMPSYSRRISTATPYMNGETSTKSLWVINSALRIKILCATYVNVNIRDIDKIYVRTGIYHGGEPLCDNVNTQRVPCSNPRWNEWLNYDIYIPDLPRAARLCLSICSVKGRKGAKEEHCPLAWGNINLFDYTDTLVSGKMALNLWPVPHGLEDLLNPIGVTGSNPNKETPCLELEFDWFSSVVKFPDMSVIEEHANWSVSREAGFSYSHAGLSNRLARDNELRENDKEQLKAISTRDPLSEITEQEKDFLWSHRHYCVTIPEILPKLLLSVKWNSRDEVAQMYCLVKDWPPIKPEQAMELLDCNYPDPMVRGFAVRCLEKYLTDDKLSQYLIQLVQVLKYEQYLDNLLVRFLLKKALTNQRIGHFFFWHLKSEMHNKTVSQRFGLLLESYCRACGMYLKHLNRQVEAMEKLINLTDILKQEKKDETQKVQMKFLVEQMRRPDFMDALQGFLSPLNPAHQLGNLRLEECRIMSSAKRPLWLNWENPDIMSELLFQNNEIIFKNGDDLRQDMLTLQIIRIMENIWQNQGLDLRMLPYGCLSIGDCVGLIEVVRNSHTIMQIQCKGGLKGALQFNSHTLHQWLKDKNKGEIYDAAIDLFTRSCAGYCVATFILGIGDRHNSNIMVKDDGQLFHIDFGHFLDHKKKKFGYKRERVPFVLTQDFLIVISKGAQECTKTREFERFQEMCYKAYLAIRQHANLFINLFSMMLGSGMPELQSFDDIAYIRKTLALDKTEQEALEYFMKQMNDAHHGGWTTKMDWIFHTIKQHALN
Sequence of p110α/p85α (P27986 whole entry partner): as the sequence (P27986 whole entry partner) above

Nc1nc2cc(-c3ccc4ncn(CCN5CCOCC5)c(=O)c4c3)ccc2o1 [compound 289]
IC50 (p110α/p85α; [1]): < 1000 nM | IC50 (p110β/p85α; [2]): < 10 µM | IC50 (p110γ; [3]): < 1000 nM

CC(=O)Nc1nc2cc(-c3cc(F)c4oc(N)nc4c3)ccc2s1 [compound 435]
IC50 (p110α/p85α; read-out: PI3K α In Vitro IC50): < 10000 nM | IC50 (p110β/p85α; read-out: PI3K β In Vitro IC50): < 10 µM | IC50 (p110γ; read-out: PI3K γ In Vitro IC50): < 100 nM

CN1CCC(c2cnc3ccc(-c4ccc5oc(N)nc5c4)cc3n2)CC1 [compound 385]
IC50 (p110α/p85α; [1]): < 100 nM | IC50 (p110β/p85α; [2]): < 10 µM

Nc1nc2cc(-c3ccc4nnc(-c5cccnc5)n4c3)ccc2o1 [compound 300]
IC50 (p110α/p85α; [1]): < 10000 nM | IC50 (p110β/p85α; [2]): < 10 µM

Nc1nc2ccc(-c3ccc4ncc(C(=O)N5CCOCC5)n4c3)cc2o1 [compound 124]
IC50 (p110α/p85α; read-out: PI3K α IC50): < 1000 nM | IC50 (p110β/p85α; read-out: PI3K β IC50): < 1 µM | IC50 (p110γ; read-out: PI3K γ IC50): < 1000 nM

O=C(c1cnc2ccc(-c3ccc4oc(Nc5ccccc5)nc4c3)cn12)N1CCOCC1 [compound 407]
IC50 (p110β/p85α; read-out: PI3K β In Vitro IC50): < 10 µM

CC(=O)Nc1nc2ccc(-c3ccc4nc(N)oc4c3)cc2s1 [compound 242]
IC50 (p110α/p85α; [1]): < 100 nM | IC50 (p110β/p85α; [2]): < 0.1 µM | IC50 (p110γ; [3]): < 100 nM

Cc1cc(-c2ccc3ncc(C(=O)N4CCOCC4)n3c2)cc2nc(N)oc12 [compound 364]
IC50 (p110α/p85α; [1]): < 1000 nM | IC50 (p110β/p85α; [2]): < 10 µM | IC50 (p110γ; [3]): < 1000 nM

CN(C)C1CN(c2cnc3ccc(-c4ccc5oc(N)nc5c4)cc3n2)C1 [compound 366]
IC50 (p110α/p85α; [1]): < 100 nM | IC50 (p110β/p85α; [2]): < 10 µM | IC50 (p110γ; [3]): < 10000 nM

CN(CCN1CCOCC1)c1cnc2ccc(-c3ccc4oc(N)nc4c3)cc2n1 [compound 166]
IC50 (p110α/p85α; read-out: PI3K α IC50): < 1000 nM | IC50 (p110β/p85α; read-out: PI3K β IC50): < 10 µM | IC50 (p110γ; read-out: PI3K γ IC50): < 10000 nM

C[C@H]1CN(c2cnc3ccc(-c4ccc5nc(N)sc5c4)cc3n2)CCN1 [compound 308]
IC50 (p110α/p85α; [1]): < 1000 nM | IC50 (p110β/p85α; [2]): < 1 µM | IC50 (p110γ; [3]): < 10000 nM

Nc1ncc2cc(-c3ccc4nccc(-c5ccncc5)c4c3)ccc2n1 [compound 9]
IC50 (p110α/p85α; read-out: PI3K α IC50): < 1000 nM | IC50 (p110β/p85α; read-out: PI3K β IC50): < 10 µM | IC50 (p110γ; read-out: PI3K γ IC50): < 1000 nM

CN1CC(n2cnc3ccc(-c4ccc5oc(N)nc5c4)cc3c2=O)C1 [compound 528]
IC50 (p110α/p85α; read-out: PI3K α In Vitro IC50): < 1000 nM | IC50 (p110β/p85α; read-out: PI3K β In Vitro IC50): < 10 µM

C[C@@H]1COCCN1C(=O)c1cnc2ccc(-c3ccc4oc(N)nc4c3)cn12 [compound 495]
IC50 (p110α/p85α; read-out: PI3K α In Vitro IC50): < 100 nM | IC50 (p110β/p85α; read-out: PI3K β In Vitro IC50): < 10 µM | IC50 (p110γ; read-out: PI3K γ In Vitro IC50): < 1000 nM

Nc1nc2cc(-c3ccc4ncc(C(=O)N5CCC(N)CC5)n4c3)ccc2o1 [compound 204]
IC50 (p110α/p85α; [1]): < 100 nM | IC50 (p110β/p85α; [2]): < 1 µM

Nc1nc2c(-c3ccc4ncc(C(=O)N5CCOCC5)n4c3)cccc2o1 [compound 496]
IC50 (p110α/p85α; read-out: PI3K α In Vitro IC50): < 1000 nM | IC50 (p110β/p85α; read-out: PI3K β In Vitro IC50): < 10 µM | IC50 (p110γ; read-out: PI3K γ In Vitro IC50): < 10000 nM

COCCN1CCN(c2cnc3ccc(-c4ccc5oc(N)nc5c4)cc3n2)CC1 [compound 387]
IC50 (p110α/p85α; [1]): < 100 nM | IC50 (p110β/p85α; [2]): < 1 µM | IC50 (p110γ; [3]): < 1000 nM

Nc1nc2cc(-c3cc(F)c4oc(N)nc4c3)ccc2o1 [compound 432]
IC50 (p110α/p85α; read-out: PI3K α In Vitro IC50): < 10000 nM | IC50 (p110β/p85α; read-out: PI3K β In Vitro IC50): < 1 µM | IC50 (p110γ; read-out: PI3K γ In Vitro IC50): < 100 nM

CN1CCN(c2cnc3ccc(-c4ccc5nc(N)oc5c4)cc3n2)CC1 [compound 118]
IC50 (p110α/p85α; read-out: PI3K α IC50): < 1000 nM | IC50 (p110β/p85α; read-out: PI3K β IC50): < 0.1 µM | IC50 (p110γ; read-out: PI3K γ IC50): < 10000 nM

CCN1CCC(n2cnc3ccc(-c4ccc5oc(N)nc5c4)cc3c2=O)CC1 [compound 73]
IC50 (p110α/p85α; read-out: PI3K α IC50): < 1000 nM | IC50 (p110β/p85α; read-out: PI3K β IC50): < 10 µM

Nc1nc2cc(-c3ccc4c(N)n[nH]c4c3)ccc2o1 [compound 428]
IC50 (p110α/p85α; read-out: PI3K α In Vitro IC50): < 10000 nM | IC50 (p110β/p85α; read-out: PI3K β In Vitro IC50): < 10 µM | IC50 (p110γ; read-out: PI3K γ In Vitro IC50): < 1000 nM

Nc1cn2cc(-c3ccc4oc(N)nc4c3)ccc2n1 [compound 245]
IC50 (p110α/p85α; [1]): < 1000 nM | IC50 (p110β/p85α; [2]): < 10 µM | IC50 (p110γ; [3]): < 1000 nM

Nc1nc2ccc(-c3ccc4nnc(-c5cccnc5)n4c3)cc2o1 [compound 301]
IC50 (p110α/p85α; [1]): < 10000 nM | IC50 (p110β/p85α; [2]): < 10 µM

CNc1nc2cc(-c3ccc4ncc(C(=O)N5CCOCC5)n4c3)ccc2o1 [compound 406]
IC50 (p110α/p85α; read-out: PI3K α In Vitro IC50): < 10000 nM | IC50 (p110β/p85α; read-out: PI3K β In Vitro IC50): < 10 µM

Nc1nc2cc(-c3cc4nccc(-c5ccncc5)c4s3)ccc2o1 [compound 14]
IC50 (p110α/p85α; read-out: PI3K α IC50): < 10000 nM | IC50 (p110γ; read-out: PI3K γ IC50): < 10000 nM
